US20090326013A1, “ISOMERS OF INOSITOL NIACINATE AND USES THEREOF” (priority 2007, published 2009)

Tests used:
[1] = test system: women suffering from painful menstrual cramps; details: 100 mg niacin twice daily, then every 2-3 hours during heavy cramps; cited from earlier work
alcoholics = details: three or more grams of niacin daily, five year study; cited from earlier work
Esterase = assay: Hydrolysis in pH 7.4 phosphate buffer (SIF) with esterase; format: in vitro ADME; details: for degradation intermediates (penta-, tetra-, tri-, di-niacinates) observed: 16 hours
Protocol: Esterase is an enzyme found in animal liver which catalyzes the hydrolysis of esters. The esterase reaches maximum activity in pH 8.0 borate buffer at 25° C. Simulated intestinal fluid without pancreatin (SIF, 1 L) was prepared according to USP standard procedure (USP29-NF24 S2). The pH of the SIF solution was then adjusted to 7.4. Esterase (6.0 mg) was then added to 200 mL of the pH 7.4 phosphate buffer. […] After sonication for about 1 minute these suspensions were carefully transferred to the hydrolysis medium. As each suspension was added to the pH 7.4 phosphate buffer, a milky white precipitated immediately appeared. The reactors were kept in a thermostatic water bath at 37±1° C. with a shaking rate at 42±1 rpm. At various reaction times ˜2 mL aliquots were taken from the hydrolysis solutions and filtered through 0.45 μm filters in order to remove any undissolved materials. The samples for HPLC analysis were prepared by addition of 20 μL 6N HCl to 1 mL filtrate.

[2] = Dissolution and hydrolysis in pH 7.4 phosphate buffer (SIF without pancreatin); format: physicochemical; details: at about 25 hours
Protocol: A pH 7.4 phosphate buffer solution was also prepared from a SIF test solution in the absence of pancreatin. […] The release of niacin and the appearance of the degradation intermediates were monitored up to about 74 hours.

[3] = Dissolution and hydrolysis in simulated gastric fluid (SGF) pH 1.1, release of niacin; format: physicochemical; details: for release of niacin in SGF, allo-IHN compared with myo-IHN (FIG. 8): SGF pH 1.1, up to 150 hours; for time to complete dissolution in SGF: 25 mg in 25 mL SGF pH 1.1, 37°C, shaking
Protocol: The hydrolysis was performed in a 37±1° C. thermostatic water bath with a shaking rate at 97±2 rpm. At various time intervals, 100 μl aliquots were taken from the reaction mixture and diluted with 1.5 mL 80/20 acetonitrile/formic acid which were used to quench the hydrolysis reaction.
The pH of the SGF solution was 1.1 at 22° C. […] The reactor was placed in a thermostatic water bath at 37±1° C. with a shaking rate at 42±1 rpm. At various reaction times, 1 mL aliquots were taken from the reaction mixture and analyzed for niacin by HPLC.

[4] = 250 mg 3 times daily combined with Mg-chlorophenoxyisobutyrate; cited from earlier work
[5] = Dissolution and hydrolysis in SIF with pancreatin at pH 6.7; format: in vitro ADME; details: pH 6.7, up to 40 hours
Protocol: Simulated intestinal fluid (SIF) with pancreatin was prepared according to the USP standard procedure (USP29-NF24 S2) with a pH of 6.7 at 24° C.

[6] = pH 7.4 phosphate buffer with esterase

For `O=C(O)c1cccnc1` [niacin, pyridine-3-carboxylic acid], the “participants experiencing significant relief of menstrual cramps” value [1] is given as “Ninety” and the “alcoholics who benefit from supplementation (reduced recidivism and symptom reduction)” value (alcoholics) is given as 30-60%.

With `O=C(O[C@H]1[C@H](OC(=O)c2cccnc2)[C@H](OC(=O)c2cccnc2)[C@@H](OC(=O)c2cccnc2)[C@@H](OC(=O)c2cccnc2)[C@H]1OC(=O)c1cccnc1)c1cccnc1` [allo-IHN, allo-inositol hexaniacinate] the “concentration of niacin released” value (Esterase; 20 mg in 200 mL pH 7.4 phosphate buffer with esterase, 25 hours) was 52.8 µg/mL, the “dissolution rate in the hydrolysis medium” value (Esterase; [6]) was “relatively fast” and the “degradation intermediates (penta-, tetra-, tri-, di-niacinates) observed” value (Esterase; [6]) was “only the degradation intermediates of allo-IHN”. The “niacin released, % of theoretical release” value (Esterase; pH 7.4 phosphate buffer with esterase, 25 hours) was roughly 58%, the “area response of the niacin peak compared with the myo-IHN sample” value (Esterase; pH 7.4 phosphate buffer with esterase, within one hour) was “significantly larger” and the “effect of the presence of esterase on release of niacin” value (Esterase; pH 7.4 phosphate buffer with vs without esterase) was “further enhances the release of niacin”. For the same compound, the “maximum concentration of niacin released” value ([2]; 20 mg in 200 mL pH 7.4 phosphate buffer) was 30.34 µg/mL, the “maximum niacin released, % of theoretical release” value ([2]; pH 7.4 phosphate buffer) was roughly 33% and the “niacin released in SGF” value ([3]; 20 mg in 200 mL SGF pH 1.1, 37°C, 118 hours) was 38.5 µg/mL. For the same compound, the “onset of dissolution and hydrolysis in SGF” value ([3]; 20 mg in 200 ml SGF pH 1.1, 37°C) was “began immediately after addition to the reaction medium”, the “niacin released in SGF, % of theoretical niacin content” value ([3]; SGF pH 1.1, 118 hours, theoretical 91 μg/mL) was roughly 42% and the “release of niacin in SGF, allo-IHN compared with myo-IHN (FIG. 8)” value [3] was “about the same”.

In the case of `O=C(O[C@H]1[C@H](OC(=O)c2cccnc2)[C@@H](OC(=O)c2cccnc2)[C@H](OC(=O)c2cccnc2)[C@@H](OC(=O)c2cccnc2)[C@H]1OC(=O)c1cccnc1)c1cccnc1` [IHN, inositol hexaniacinate], the “influence on glucose tolerance” value [4] is given as “no influence on glucose tolerance”.

For `O=C(O[C@H]1[C@H](OC(=O)c2cccnc2)[C@@H](OC(=O)c2cccnc2)[C@H](OC(=O)c2cccnc2)[C@@H](OC(=O)c2cccnc2)[C@H]1OC(=O)c1cccnc1)c1cccnc1` [myo-IHN, myo-inositol hexaniacinate, reference compound], the “dissolution rate in the hydrolysis medium” value (Esterase; [6]) was “considerably slower than the hydrolysis rate”, the “extent of hydrolysis (FIG. 9)” value (Esterase; [6]) was “remained as a solid and did not hydrolyze” and the “degradation intermediates (penta-, tetra-, tri-, di-niacinates) observed” value (Esterase; [6]) was “absence of degradation intermediates”. For the same compound, the “time to complete dissolution in SGF” value [3] was 6 h, the “release of niacin in SGF, allo-IHN compared with myo-IHN (FIG. 8)” value [3] was “about the same” and the “release of niacin in SIF with pancreatin” value [5] was “very little release of niacin”.

For `O=C(O[C@H]1[C@H](OC(=O)c2cccnc2)[C@@H](OC(=O)c2cccnc2)[C@H](OC(=O)c2cccnc2)[C@@H](OC(=O)c2cccnc2)[C@@H]1OC(=O)c1cccnc1)c1cccnc1` [scyllo-IHN, Scyllo-inositol hexaniacinate], the “time to complete dissolution in SGF” value [3] was greater than 53 h and the “dissolution and hydrolysis after increasing acidity of the SGF medium” value ([3]; 2 ml concentrated HCl injected after 53 hours) was “can be dissolved and the hydrolysis reaction commences to produce niacin”.
